Experimental data taken from PubChem BioAssay (NCI).
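Grown in 96-well plates, cells were treated for 48 hours with each compound at five concentrations. Insufficient inhibition: endpoint recorded as highest concentration tested. GI50 marks 50% less growth. TGI: total growth inhibition.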

Key:
Experiment in all cases: NCI anticancer screen, dose series, 48 h; in the data active = GI50 below about 0.43 µM; inactive = the rest
[1] = test system: 786-0 renal
[2] = test system: A549 NSCLC
[3] = test system: ACHN renal
[4] = test system: CCRF-CEM leukemia
[5] = test system: COLO 205 colon
[6] = test system: DLD-1 colon
[7] = test system: EKVX NSCLC
[8] = test system: HCC-2998 colon
[9] = test system: HCT-15 colon
[10] = test system: HL-60(TB) leukemia
[11] = test system: HOP-18 NSCLC
[12] = test system: HOP-92 NSCLC
[13] = test system: IGROV1 ovarian
[14] = test system: K-562 leukemia
[15] = test system: KM12 colon
[16] = test system: M14 melanoma
[17] = test system: MALME-3M melanoma
[18] = test system: MOLT-4 leukemia
[19] = test system: NCI-H226 lung
[20] = test system: NCI-H23 lung
[21] = test system: OVCAR-5 ovarian
[22] = test system: OVCAR-8 ovarian
[23] = test system: RPMI-8226 leukemia
[24] = test system: RXF 393 renal
[25] = test system: SF-268 CNS
[26] = test system: SF-295 CNS
[27] = test system: SF-539 CNS
[28] = test system: SK-MEL-2 melanoma
[29] = test system: SK-MEL-28 melanoma
[30] = test system: SK-OV-3 ovarian
[31] = test system: SN12C renal
[32] = test system: SNB-19 CNS
[33] = test system: SNB-75 CNS
[34] = test system: SNB-78 CNS
[35] = test system: SR leukemia
[36] = test system: SW-620 colon
[37] = test system: TK-10 renal
[38] = test system: UACC-257 melanoma
[39] = test system: UACC-62 melanoma
[40] = test system: UO-31 renal

CCCCCCCC(=O)[O-].CCCCCCCC(=O)[O-].N.N.N.N.[Co+3].[O-][Cl+3]([O-])([O-])[O-]
> 100 µM: TGI [1] | TGI [2] | TGI [3] | TGI [4] | TGI [5] | TGI [6] | TGI [7] | TGI [8] | TGI [9] | TGI [10] | TGI [11] | TGI [12] | TGI [13] | TGI [14] | TGI [15] | TGI [16] | TGI [17] | TGI [18] | TGI [19] | TGI [20] | TGI [21] | TGI [22] | TGI [23] | TGI [24] | TGI [25] | TGI [26] | TGI [27] | TGI [28] | TGI [29] | TGI [30] | TGI [31] | TGI [32] | TGI [33] | TGI [34] | TGI [35] | TGI [36] | TGI [37] | TGI [38] | TGI [39] | TGI [40]
inactive: GI50 [1] > 100 µM | GI50 [2] > 100 µM | GI50 [3] > 100 µM | GI50 [4] > 100 µM | GI50 [5] > 100 µM | GI50 [6] > 100 µM | GI50 [7] > 100 µM | GI50 [8] > 100 µM | GI50 [9] > 100 µM | GI50 [10] > 100 µM | GI50 [11] 54.8 µM | GI50 [12] > 100 µM | GI50 [13] 40.3 µM | GI50 [14] > 100 µM | GI50 [15] > 100 µM | GI50 [16] > 100 µM | GI50 [17] > 100 µM | GI50 [18] > 100 µM | GI50 [19] > 100 µM | GI50 [20] > 100 µM | GI50 [21] > 100 µM | GI50 [22] > 100 µM | GI50 [23] > 100 µM | GI50 [24] 74.6 µM | GI50 [25] 19.1 µM | GI50 [26] > 100 µM | GI50 [27] > 100 µM | GI50 [28] > 100 µM | GI50 [29] > 100 µM | GI50 [30] > 100 µM | GI50 [31] > 100 µM | GI50 [32] > 100 µM | GI50 [33] > 100 µM | GI50 [34] > 100 µM | GI50 [35] 69.9 µM | GI50 [36] > 100 µM | GI50 [37] 57.1 µM | GI50 [38] > 100 µM | GI50 [39] > 100 µM | GI50 [40] > 100 µM
